In article PMC3023844 (Planta medica, 2010):
Read-outs that look alike come from different tables or passages of the source.

Experiments:
CYP3A = details: read-out: IC50 or Ki values determined previously; CYP3A inhibitors in grapefruit juice; cited from earlier work
CYP3A (intestinal) [1] = biological target: T1, CYP3A (intestinal) (Homo sapiens, UniProt P08684); experiment: in vitro; details: microsomes, pH 7.4, IC50, HIM as the enzyme source
[2] = biological target: recombinant CYP3A4 (rCYP3A4) (Homo sapiens, UniProt P08684); experiment: IC50 of triterpenes for midazolam 1′-hydroxylation using recombinant CYP3A4
CYP3A (intestinal) [3] = biological target: T1, CYP3A (intestinal); details: microsomes, pH 7.4

SMILES | IC50 (CYP3A) | IC50 (CYP3A (intestinal) [1]) | IC50 [2] | IC50 (CYP3A (intestinal) [3])
CC(=CCOc1c2ccoc2cc2oc(=O)ccc12)CCC(O)C(C)(C)O (centres unmarked) [6′,7′-dihydroxybergamottin] | 1 to 5 µM |  |  | 
C[C@H]1[C@H](C)CC[C@]2(C(=O)O)CC[C@]3(C)C(=CC[C@@H]4[C@@]5(C)C[C@@H](O)[C@H](O)C(C)(C)[C@@H]5CC[C@]43C)[C@H]12 [Corosolic acid (3), 2α,3β-dihydroxyurs-12-en-28-oic acid] |  | 8.8 ± 0.9 µM | 4.3 ± 0.3 µM | 
CC1(C)CC[C@]2(C(=O)O)CC[C@]3(C)C(=CC[C@@H]4[C@@]5(C)C[C@@H](O)[C@H](O)C(C)(C)[C@@H]5CC[C@]43C)[C@@H]2C1 [Maslinic acid (2), 2α,3β-dihydroxyolean-12-en-28-oic acid] |  |  | 2.8 ± 0.2 µM | 7.4 ± 0.5 µM
